Test results taken from patent US8063043B2, “Salts of N-[6-cis-2,6-dimethylmorpholin-4-yl)pyridine-3-yl]-2-methyl-4′-(trifluoromethoxy)[1,1′-biphenyl]-3-carboxamide” (Novartis AG, priority 2008, dated 2011).
Read-outs that look alike come from different tables or passages of the source.

Columns and labels:
[1] = Rat PK of suspension formulations, free form vs diphosphate salt; type: in vivo
[2] = Stability measured by degradation products (DP, HPLC area-%); type: physicochemical
Experimental: DPs are analyzed by HPLC (method see Table 3). They are calculated as area-% products. Compositions of the mixtures in mass % are as follows.
For salts in water, acetonitrile was added to dilute the 0.2% slurry to 0.1% clear solution. For salts in methanol, acetonitrile or acetonitrile/water (50:50, v/v), the corresponding solvent or solvent mixture was added to dilute the 0.2% slurry to 0.1% clear solution. For salts in 0.5% CMC, HPMC cellulose 4000 0.5%, or Tween 80, 0.8%, tetrahydrofuran and water were added to dilute the 2% slurry to 0.1% clear solution and to reach tetrahydrofuran/water 50:50 (v/v). For bulk stability samples (including the samples in excipient mixtures), acetonitrile/water (80:20, v/v) was added to make 0.1% clear solution.

[3] = Stability: appearance color (CL); type: physicochemical
[4] = Solid form after stress test (XRPD/DSC); type: physicochemical
[5] = Bulk corrosivity with stainless steel coupon; type: physicochemical; conditions: 2 day 80% r.h. with stainless steel coupon; change in the surface of the coupon
[6] = pH of 1% solution or suspension; type: physicochemical; conditions: In water
Experimental: The solutions were stirred continuously as the pH was measured.

[7] = Thermogravimetry (weight loss / loss on drying); type: physicochemical; conditions: at 150° C.
[8] = Hygroscopicity, DVS sorption/desorption isotherms; type: physicochemical; conditions: for DVS Desorp. Weight % chg. / DVS Sorp. Weight % chg.: 25° C.
Experimental: Sorption/desorption isotherms: Instrument, Surface Measurement System DVS-1 temperature at 25±0.5° C.

[9] = Crystal modification after 72 hours vibration (polymorphism behavior of slurries); type: physicochemical
Source text: The slurries were filtered and the solids collected for XRPD analyses.

[10] = pH 6.8
physchem = conditions: 25 °C, thermodynamic from solid, Solubility (approx. at 25° C., mg/ml)
[11] = 3.0 mg/kg PO dose in suspension, mean
[12] = in vivo, 3.0 mg/kg PO dose in suspension, mean
[13] = in vivo, IV 3 mg/kg, mean, n = 2

`Cc1c(C(=O)Nc2ccc(N3C[C@@H](C)O[C@@H](C)C3)nc2)cccc1-c1ccc(OC(F)(F)F)cc1` [Free base] showed an AUCinf/dose [1, 11] of 171 nM·h/mg/kg, an AUClast/dose [1, 11] of 170 nM·h/mg/kg and a Cmax/Dose [1, 11] of 78.9 nM/mg/kg. The AUCinf/dose ([1]; IV 3 mg/kg, mean, n = 2) was 5840 nM·h/mg/kg, the AUClast/dose ([1]; IV 3 mg/kg, mean, n = 2) was 5830 nM·h/mg/kg and the bioavailability ([1]; in vivo, 3.0 mg/kg PO dose in suspension) was 3%. It also gave an AUC(0-inf) [1, 12] of 0.512 µM·h, an AUC(0-t) [1, 12] of 0.51 µM·h and a tmax [1, 12] of 30 min. The Cmax ([1]; in vivo, 3.0 mg/kg PO dose in suspension, mean, read-out: C0/Cmax) was 0.237 µM, the AUC(0-inf) [1, 13] was 17.5 µM·h and the AUC(0-t) [1, 13] was 17.5 µM·h. It also gave a Cmax ([1]; in vivo, IV 3 mg/kg, mean, n = 2, read-out: C0/Cmax) of 6.11 µM.
In the case of `Cc1c(C(=O)Nc2ccc(N3C[C@@H](C)O[C@@H](C)C3)nc2)cccc1-c1ccc(OC(F)(F)F)cc1.Cl` [Hydrochloride, mono], the “DP [%]” value ([2]; 0.2% solutions or suspensions, 2 week 50° C., Acetonitrile) is reported as 0.38%, the “DP [%]” value ([2]; 0.2% solutions or suspensions, 2 week 50° C., Acetonitrile/Water (50:50)) is reported as 1.72% and the “DP [%]” value ([2]; 0.2% solutions or suspensions, 2 week 50° C., Methanol) is reported as 2.06%. The “DP [%]” value ([2]; 0.2% solutions or suspensions, 2 week 50° C., Water) was 0.31%, the “DP [%]” value ([2]; 2% (or 5%) solutions or suspensions, 1 day room temperature, 0.5% CMC) was 0.33% and the “DP [%]” value ([2]; 2% (or 5%) solutions or suspensions, 1 day room temperature, HPMC Cellulose 4000 0.5%) was 0.32%. The “DP [%]” value ([2]; 2% (or 5%) solutions or suspensions, 1 day room temperature, Tween 80, 0.8%) was 0.31%, the “DP [%]” value ([2]; 2 weeks 50° C., tight container, 1% in mixture 1 (Lactose/maize starch/Aerosil/Magnesiumstearate)) was 0.27% and the “DP [%]” value ([2]; 2 weeks 50° C., tight container, 1% in mixture 2 (Mannitol/Avicel PH 102/Cutina HR)) was 0.39%. The “DP [%]” value ([2]; 2 weeks 50° C./75% r.h., 1% in mixture 1) was 2.85%, the “DP [%]” value ([2]; 2 weeks 50° C./75% r.h., 1% in mixture 2) was 0.31% and the “DP [%]” value ([2]; Solid state, 2 week 50° C., tight container, Bulk (HPLC)) was 0.31%. For the same compound, the “DP [%]” value ([2]; Solid state, 2 week 50° C./75% r.h., Bulk (HPLC)) was 0.29%, the “DP [%]” value ([2]; Solid state, 2 week 80° C., tight container, Bulk (HPLC)) was 0.35% and the “DP [%]” value ([2]; Solid state, 2 week 80° C./75% r.h., Bulk (HPLC)) was 0.35%. The “DP [%]” value ([2]; Unstressed drug substance, bulk) was 0.30%, the “DP [%]” value ([2]; Xenon light (approx. 1200 kLuxh), Bulk (HPLC)) was 1.46% and the CL ([3]; 0.2% solutions or suspensions, 2 week 50° C., Acetonitrile/Water (50:50), clear solution after stress test (*)) was “A *”. The CL ([3]; 0.2% solutions or suspensions, 2 week 50° C., Acetonitrile, clear solution after stress test (*)) was “A *”, the CL ([3]; 0.2% solutions or suspensions, 2 week 50° C., Methanol, clear solution after stress test (*)) was “A *” and the CL ([3]; 0.2% solutions or suspensions, 2 week 50° C., Water, suspension (↓)) was “A ↓”. The CL ([3]; 2% (or 5%) solutions or suspensions, 1 day room temperature, 0.5% CMC, suspension (↓)) was “A ↓”, the CL ([3]; 2% (or 5%) solutions or suspensions, 1 day room temperature, HPMC Cellulose 4000 0.5%, suspension (↓)) was “A ↓” and the CL ([3]; 2% (or 5%) solutions or suspensions, 1 day room temperature, Tween 80, 0.8%, suspension (↓)) was “A ↓”. The “Bulk (XRPD): change” value ([4]; Solid state, 2 week 50° C., tight container) was “No”, the “Bulk (XRPD): change” value ([4]; Solid state, 2 week 50° C./75% r.h., footnote: new peak in the XRPD pattern compared with unstressed diphosphate) was “No” and the “Bulk (DSC): change” value ([4]; Solid state, 2 week 80° C., tight container) was “No”. The “Bulk (XRPD): change” value ([4]; Solid state, 2 week 80° C./75% r.h., footnote: pattern similar to that of phosphate, with one extra peak) was “No”, the “Bulk (XRPD): change” value ([4]; Xenon light (approx. 1200 kLuxh)) was “No” and the Bulk corrosivity [5] was “No visible change”. For the same compound, the “pH of 1% solution or suspension” value [6] was 1.69, the “Thermogravimetry (weight loss in %)” value ([7]; Heating rate 10° C./min) was 0.48% at 150 °C and the “Loss on drying by TGA (%)” value ([7]; Hygroscopicity, as is) was 0.48 at 150 °C %. The “XRPD after DVS test” value [8] was “No change”, the “DVS Desorp. Weight % chg.” value ([8]; RH 0.0%) was −0.0114% and the “DVS Sorp. Weight % chg.” value ([8]; RH 0.0%) was −0.0001%. The “DVS Desorp. Weight % chg.” value ([8]; RH 25.0%) was 0.3799%, the “DVS Sorp. Weight % chg.” value ([8]; RH 25.0%) was 0.3334% and the “DVS Desorp. Weight % chg.” value ([8]; RH 50.0%) was 0.4932%. For the same compound, the “DVS Sorp. Weight % chg.” value ([8]; RH 50.0%) was 0.4660%, the “DVS Desorp. Weight % chg.” value ([8]; RH 75.0%) was 0.6069% and the “DVS Sorp. Weight % chg.” value ([8]; RH 75.0%) was 0.5753%. The “DVS Desorp. Weight % chg.” value ([8]; RH 85.0%) was 0.6817%, the “DVS Sorp. Weight % chg.” value ([8]; RH 85.0%) was 0.6525% and the “DVS Desorp. Weight % chg.” value ([8]; RH 95.0%) was 0.8784%. The “DVS Sorp. Weight % chg.” value ([8]; RH 95.0%) was 0.8784%, the “Crystal modification after 72 hours vibration (DSC/XRPD/TG)” value (from here on “Crystal modification … (DSC/XRPD/TG)”) ([9]; 0.1N HCl solution) was “XRPD pattern” and the “Crystal modification … (DSC/XRPD/TG)” value ([9]; Acetone, N—no, Y—yes) was “N, no form change”. The “Crystal modification … (DSC/XRPD/TG)” value ([9]; Acetonitrile, N—no, Y—yes) was “N, no form change”, the “Crystal modification … (DSC/XRPD/TG)” value ([9]; Ethanol, N—no, Y—yes) was “N, no form change” and the “Crystal modification … (DSC/XRPD/TG)” value ([9]; Ethyl acetate, N—no, Y—yes) was “N, no form change”. The “Crystal modification … (DSC/XRPD/TG)” value ([9]; Iso Propanol, N—no, Y—yes) was “N, no form change”, the “Crystal modification … (DSC/XRPD/TG)” value ([9]; Water) was “Dissociated to free” and the “Final pH of slurry” value ([9]; Water) was “Final pH 1.94”. The “Crystal modification … (DSC/XRPD/TG)” value ([9]; pH 3 buffer) was “Dissociated to free”, the “Final pH of slurry” value ([9]; pH 3 buffer) was “Final pH 2.89” and the “Crystal modification … (DSC/XRPD/TG)” value ([9]; pH 6.8 buffer) was “No form change”. The “Final pH of slurry” value ([9]; pH 6.8 buffer) was “Final pH 5.93”, the “Solubility (approx. at 25° C., mg/ml)” value ([10]; 1 day) was 0.000 (Final mg/ml and the “Final pH of solubility sample” value [10] was “pH 5.93)”. For the same compound, the solubility at 1 day (physchem; pH 1, simulated gastric fluid) was 2 µg/mL and the solubility at 1 day (physchem; water) was 5 µg/mL.
